In US6489268B1, “Highly selective herbicidal phenoxypropionic acid alkoxycarbonyl anilid compounds and method of preparing the same” (Dongbu Hannong Chemical Co., Ltd., priority 1999, dated 2002):

How the values were obtained:
Experiment in all cases: Leaf treatment test (post-emergence spray, % damage)
Type in all cases: in vivo
Settings in all cases: 14 days after treatment, vs untreated control
[1] = system: Echinochloa crus-galli Beauv. var. caudata Kitagawa (Barnyard grass, ECHCG)
Method: (§1) Seeds of rice, wheat, barley, corn, cotton, barnyard grass, common sorgum, large crabgrass and fall panicum were seeded at a pot with a surface area of 600 cm. When barnyard grass kept at 20˜30° C. had three leaves, wettable powders prepared by mixing 1 weight part of the active compound, 5 weight part of acetone and 1 weight part of emulsifier and diluting with water was applied directly on the leaves in 2000 l per hectare. The concentration of the spray liquid was so chosen the particular amounts of the active compound desired. 14 days after the treatment, the degree of damage to the plants was rated in % damage in comparison to the development of untreated control. 0% no action (like untreated control) 20% slight effect 70% herbicidal effect 100% total destruction [table]

[2] = system: Oryza sativa L. cv. Dongjin (Rice, ORYSA)
Method: as §1

[3] = system: Andropogon sorghum (Common sorgum, SORBI)
Method: as §1

[4] = system: Digitaria Sanguinalis (L.) SCOP (Large crabgrass, DIGSA)
Method: as §1

[5] = system: Glydne max (L.) MERR (Soy bean, GLXMA)
Method: [The procedure below names another organism; the source lists this organism under the same test.] as §1

[6] = system: Gossypium (Cotton, GOSHI)
Method: as §1

[7] = system: Panicum dichotomiflorum Michx (Fall panicum, PANDI)
Method: as §1

[8] = system: Triticum aestivum L. (Wheat, TRZAW)
Method: as §1

[9] = system: Zea mays L. (Corn, ZEAMX)
Method: as §1

SMILES | degree of damage to the plants, SORBI ([3]; 0.025 kg/ha) | degree of damage to the plants, SORBI ([3]; 0.1 kg/ha) | degree of damage to the plants, DIGSA ([4]; 0.025 kg/ha) | degree of damage to the plants, DIGSA ([4]; 0.1 kg/ha) | degree of damage to the plants, ECHCG ([1]; 0.025 kg/ha) | degree of damage to the plants, ECHCG ([1]; 0.1 kg/ha) | degree of damage to the plants, GLXMA ([5]; 0.025 kg/ha) | degree of damage to the plants, GLXMA ([5]; 0.1 kg/ha) | degree of damage to the plants, GOSHI ([6]; 0.025 kg/ha) | degree of damage to the plants, GOSHI ([6]; 0.1 kg/ha) | degree of damage to the plants, ORYSA ([2]; 0.025 kg/ha) | degree of damage to the plants, ORYSA ([2]; 0.1 kg/ha) | degree of damage to the plants, PANDI ([7]; 0.025 kg/ha) | degree of damage to the plants, PANDI ([7]; 0.1 kg/ha) | degree of damage to the plants, TRZAW ([8]; 0.025 kg/ha) | degree of damage to the plants, TRZAW ([8]; 0.1 kg/ha) | degree of damage to the plants, ZEAMX ([9]; 0.025 kg/ha) | degree of damage to the plants, ZEAMX ([9]; 0.1 kg/ha) | other results
CCOC(=O)c1cccc(N(C)C(=O)C(C)Oc2ccc(Oc3nc4ccc(Cl)cc4o3)cc2)c1 (centres unmarked) [Compound 3] | – | – | – | – | – | – | – | – | – | – | – | – | – | – | – | – | – | – | degree of damage to the plants, ECHCG ([1]; 15 g/ha): 0%; degree of damage to the plants, ECHCG ([1]; 30 g/ha): 0%; degree of damage to the plants, ECHCG ([1]; 60 g/ha): 20%; degree of damage to the plants, ECHCG ([1]; 125 g/ha): 90%; degree of damage to the plants, ECHCG ([1]; 250 g/ha): 100%; degree of damage to the plants, ECHCG ([1]; 500 g/ha): 100%; degree of damage to the plants, ECHCG ([1]; 1000 g/ha): 100%; degree of damage to the plants, ORYSA ([2]; 15 g/ha): 0%; degree of damage to the plants, ORYSA ([2]; 30 g/ha): 0%; degree of damage to the plants, ORYSA ([2]; 60 g/ha): 0%; degree of damage to the plants, ORYSA ([2]; 125 g/ha): 0%; degree of damage to the plants, ORYSA ([2]; 250 g/ha): 0%; degree of damage to the plants, ORYSA ([2]; 500 g/ha): 0%; degree of damage to the plants, ORYSA ([2]; 1000 g/ha): 0%
COC(=O)c1ccc(NC(=O)C(C)Oc2ccc(Oc3nc4ccc(Cl)cc4o3)cc2)cc1 (centres unmarked) [Compound 4] | 70% | 100% | 100% | 100% | 100% | 100% | 0% | 0% | 0% | 0% | 0% | 30% | 80% | 100% | 0% | 0% | 0% | 0% | –
CCOC(=O)c1ccc(NC(=O)C(C)Oc2ccc(Oc3nc4ccc(Cl)cc4o3)cc2)cc1 (centres unmarked) [Compound 5] | 95% | 100% | 100% | 100% | 95% | 100% | 0% | 20% | 0% | 0% | 0% | 40% | 95% | 100% | 0% | 20% | 0% | 30% | –
